Test results as given in patent US20240100088A1, “NOVEL FORMULATION FOR TREATING COPPER METABOLISM-ASSOCIATED DISEASES OR DISORDERS” (Alexion Pharmaceuticals, Inc., priority 2021, published 2024).
Entries after “also recorded” stand apart in the source; their conditions may differ.

What was measured:
[1] = Phase 1 study: safety and tolerability (TEAEs, TESAEs, clinical laboratory); type: in vivo, healthy adult participants
Protocol: (§1) The safety and tolerability of the 2 formulations of BC-TTM in healthy participants was also assessed. BC-TTM pharmacokinetics (PK) in plasma as measured via total molybdenum (Mo) and plasma ultrafiltrate (PUF) Mo was determined.

[2] = Phase 1 study, Dose-Proportionality Extension Period: PK of plasma total Mo and PUF Mo (incl. dose-normalized, power model); type: in vivo, healthy adult participants; conditions: any of the treatments evaluated
Protocol: as §1
The Dose-Proportionality Extension Period was a re-randomized, open-label, parallel group design to assess the dose-proportionality between 2.5 mg (2×1.25 mg), 5 mg (4×1.25 mg), 10 mg (8×1.25 mg), and 30 mg (24×1.25 mg) EC mini-tablet doses. The 15 mg (12×1.25 mg) dose was not repeated during the Dose-Proportionality Extension Period.
The Dose-Proportionality Extension Period was conducted following completion of the Two-way Crossover Period of the study and after an at least 14-day washout period. Participants were re-randomized as follows: • Treatment C (N=10-12): BC-TTM 2.5 mg (2×1.25 mg EC mini-tablets) • Treatment D (N=10-12): BC-TTM 5 mg (4×1.25 mg EC mini-tablets) • Treatment E (N=10-12): BC-TTM 10 mg (8×1.25 mg EC mini-tablets) • Treatment F (N=10-12): BC-TTM 30 mg (24×1.25 ma EC mini-tablets)
The dose-proportionality evaluation included data obtained from Treatment A of the Two-way Crossover Period (12×1.25 mg EC mini-tablets) to represent a dose of 15 mg,
Re-randomized treatment assignment were based on Baseline body mass index (BMI). Two strata for Baseline BM (<25, 25 to <32 kg/m^2) were used. […]

Structure (SMILES): C[N+](C)(C)CCO.C[N+](C)(C)CCO.[SH-].[SH-].[S]=[Mo]=[S] [BC-TTM, Bis-choline tetrathiomolybdate]
- deaths or TESAEs ([1]; all treatments): No deaths or TESAEs were reported
- severity of TEAEs ([1]; all treatments, except 2 Grade 4 events after Treatment B): All TEAEs were Grade 1 or 2 in severity,
- safety profile and tolerability ([1]; single oral dose 2.5 mg to 30 mg as EC mini-tablets and as a 15 mg EC tablet): acceptable safety profile and was generally well-tolerated
- effect of body weight or BMI on BC-TTM PK [2]: apparently not affected; also recorded: There was no apparent effect of body
